Earlier results on one compound are cited in patent US20210052545A1, “COMPOSITIONS AND METHODS OF THEIR USE” (priority 2018, published 2021).

The conditions of this data set: human, in vivo.

The structures appear in SMILES notation.

Turning to `NC(=O)N1c2ccccc2C=Cc2ccccc21` [carbamezepine], the “increase in the risk of blood dyscrasias” value is “five- to eight” and the “patients showing a 25% decrease in white blood cell count” value is reported as 7%.
